Source: patent EP0571593B1, “NEW NON IONIC IODIZED AGENTS FOR X-RAY CONTRASTING, METHOD FOR PREPARING THEM AND GALENICAL COMPOSITIONS CONTAINING THEM” (CENTRO INVESTIGACION JUSTESA IMAGEN S.A., priority 1991, dated 1993)

Legend:
[1] = Viscosity of aqueous solutions; type: physicochemical
[2] = Osmolality of aqueous solutions; type: physicochemical
Iodine content = type: physicochemical; conditions: for Iodine Content (%): comparison table with IOTROLAN
Sprague-Dawley rats = test: Intravenous toxicity, lethal dose for 50% of the animals; type: in vivo; conditions: i.v. via the caudal vein at 2.2ml/min, mortality during seven days
rat = test: ED50 after intracisternal (i.cis.) administration; type: in vivo

| SMILES | Viscosity (mPa.S at 300 mg I/ml) 37°C [1] | Viscosity mPa s (30°C) at 300mg I/ml [1] | Osmolality mosm/kg at 300mg I/ml [2] [mosm/kg] | Osmolality (mOsm/kg at 300 mg I/ml) 37°C [2] [mOsm/kg] | % Iodine (Iodine content) | Iodine Content (%) (Iodine content) | LD50, rat i.v. (g I/kg) (Sprague-Dawley rats) | ED50, rat i.cis. (mg I/kg) (rat) |
| --- | --- | --- | --- | --- | --- | --- | --- | --- |
| CC(=O)Nc1c(I)c(C(=O)NCC(O)CO)c(I)c(C(=O)N(CC(=O)Nc2c(I)c(C(=O)NCC(O)CO)c(I)c(C(=O)NCC(O)CO)c2I)CC(O)CO)c1I (centres unmarked) [EXAMPLE 36, N,N-bis-(2,3-dihydroxypropyl)-5-{3-[N-(2,3-dihydroxypropyl)carbamoyl]-5-acetamido-2,4,6-triiodobenzoyl-N-(2,3-dihidroxypropyl)aminoacetamido}-2,4,6-triiodoisophthalamide] | 8,3-8,8 mPa.S | 8,8 mPa s | 125 | 125 | 51% | 51,0% | 25-27 g I/kg | 550 |
| COCC(=O)Nc1c(I)c(C(=O)NCC(O)CO)c(I)c(C(=O)N(C)CC(=O)N(C)c2c(I)c(C(=O)NC(CO)C(O)CO)c(I)c(C(=O)NC(CO)C(O)CO)c2I)c1I (centres unmarked) [EXAMPLE 9, N,N'-bis-(1-hydroxymethyl-2,3-dihydroxypropyl)-5-{3-[N-(2,3-dihydroxypropyl)carbamoyl]-5-methoxyacetamido-2,4,6-triiodobenzoyl-N-methylaminoacetyl-N-methylamino}-2,4,6-tri-iodoisophthalamide] | 8,2 mPa.S | 8,2 mPa s | 226 | 226 | 49,6% | 49,6% | 20-25 g I/kg | 350 |
| CN(CC(=O)N(C)c1c(I)c(C(=O)NCC(O)CO)c(I)c(C(=O)NCC(O)CO)c1I)C(=O)c1c(I)c(NC(=O)CO)c(I)c(C(=O)NCC(O)CO)c1I (centres unmarked) [EXAMPLE 11, N,N'-bis-(2,3-dihydroxypropyl)-5-{3-[N-(2,3-dihydroxypropyl)carbamoyl]-5-hydroxyacetamido-2,4,6-triiodobenzoyl-N-methylaminoacetyl-N-methylamino}-2,4,6-triiodo isophthalamide] | 7,0 mPa.S | 6,9 mPa s | 152 | 152 | 52% | 52,1% | 23 g I/kg | 500 |
| COCC(=O)N(CCO)c1c(I)c(C(=O)NCC(O)CO)c(I)c(C(=O)N(C)CC(=O)N(CCO)c2c(I)c(C(=O)NCC(O)CO)c(I)c(C(=O)NCC(O)CO)c2I)c1I (centres unmarked) [EXAMPLE 35, N,N'-bis-(2,3-dihydroxypropyl)-5-{3-[N-(2,3-dihydroxypropyl)carbamoyl]-5-methoxyacetyl-N-(2-hydroxyethyl)amino-2,4,6-triiodobenzoyl-N-methylaminoacetyl-N-(2-hydroxyethyl)amino}-2,4,6 triiodoisophthalamide] |  | 8,2 mPa s | 214 |  | 49,1% |  |  |  |
| CN(C(=O)CC(=O)N(C)c1c(I)c(C(=O)NC(CO)C(O)CO)c(I)c(C(=O)NC(CO)C(O)CO)c1I)c1c(I)c(C(=O)NC(CO)C(O)CO)c(I)c(C(=O)NC(CO)C(O)CO)c1I (stereo not drawn) [IOTROLAN, N,N'-dimethyl-N,N'-bis[3,5-(l-hydroxymethyl-2,3-dihydroxy-propyl-carbamoyl) -2,4,6-triiodo-phenyl]-diamide of malonic acid, reference compound] | 8,1-9,2 mPa.S |  |  | 320 |  | 47% | 25-28 g I/kg | 315 |
| O=C(NCCO)c1c(I)c(C(=O)NCCO)c(I)c(N(CCO)C(=O)CN(CCO)C(=O)c2c(I)c(C(=O)NCC(O)CO)c(I)c(N(CCO)C(=O)CO)c2I)c1I (centres unmarked) [EXAMPLE 16, N,N'-bis-(2-hydroxyethyl)-5-{3-[N-(2,3-dihydroxypropyl)-carbamoyl]-5-hydroxyacetyl-N-(2-hydroxyethyl)amino-2,4,6-tri-iodobenzoyl-N-(2-hydroxyethyl)amino-acetyl-N-(2-hydroxyethyl)amino}-2,4,6-triiodoisophthalamide] |  | 7,6 mPa s | 131 |  | 50,5% |  |  |  |
